Test results taken from article PMC9519552, “Activation of the human insulin receptor by non-insulin-related peptides” (Nature Communications, 2022).
Read-outs that look alike come from different tables or passages of the source. Positions of bridges follow the written chain, without caps; N, C: chain ends. Residues, ends and D or L forms follow the SMILES beside them.

Experiments:
[1] = molecular target: T1, human holoIR-A over-expressed in HEK293 cells (Homo sapiens, UniProt P06213); experiment: Inhibition of hIR phosphorylation by peptides, co-incubated with BHI at its EC50 (ELISA); format: cell-based; details: for hIRA Phosph IC50 Run 1 / hIRA Phosph IC50 Run 2 / hIRA Phosph IC50 Run 3: inhibition of insulin-stimulated phosphorylation; for hIRA Phosph IC50 Run 1: BHI at its EC50, run 1; for hIRA Phosph IC50 Run 2: BHI at its EC50, run 2; for hIRA Phosph IC50 Run 3: BHI at its EC50, run 3; for IC50: read-out: hIRA Phosph IC50 Mean
T1 construct: expressed in transfected cells; host or cells: HEK293, stably transfected
Protocol: Phosphorylation was quantified using an ELISA technique. Ninety-six well, flat-bottom microplates (Greiner Bio-One) were pre-coated with 2 µg mL^−1 anti-C9 monoclonal antibody (Rho 1D4; University of British Columbia)[27] in 20 mM sodium carbonate, pH 9.6, at 4 °C for overnight prior to the assay. On the assay day, plates were washed 3× with 0.1% Tween in 50 mM Tris Buffer Saline, pH 7.5 (TBST), and then blocked for greater than 1 h at room temperature (RT) with 1% BSA (Sigma) in TBST.
Stably transfected HEK293 cells over-expressing human holoIR-A containing a C-terminal C9 epitope tag ([…]), were plated at 6 × 10^4 cells per well serum-starved using 0.1% BSA in DMEM (Gibco) for overnight at standard tissue culture condition. […] After a 15-min incubation in lysis buffer at 4 °C, the lysate was transferred to anti-C9 antibody coated capture plate (Rho 1D4; University of British Columbia)[27]. […] After a 1 h incubation at room temperature, the secondary antibody was removed by washing 3× with TBST. Signal detection occurred with the addition of TMB, an HRP substrate (Pierce). After 5–10 min, the reaction was stopped by adding an equal volume of 2 M H2SO4, and the absorbance readings at 450 nm (A450) were recorded using a Envision plate reader (PerkinElmer). Samples were tested in three independent assay runs on three different days.
Percent specific response (y-axis) was plotted versus the log concentration of compound (x-axis) using Prism Version 9.3.1 (GraphPad Software). Individual measurements are provided as Source Data.

human IR-A (holoIR-A) = molecular target: T2, human IR-A (holoIR-A) (Homo sapiens, UniProt P06213); experiment: holoIR-A competitive radioligand binding assay (scintillation proximity assay); details: for Ki: IM172N22(-) mutant peptide set; for reduction in ki for hIR-A on substitution: relative to control peptide IM172N22 devoid of N-terminal phenylacetylation
T2 construct: expressed in transfected cells; host or cells: HEK293 (ATCC #CRL-1573), stably transfected; membrane preparation
Protocol: Cellular membranes were prepared from human embryonic kidney (HEK293; ATCC #CRL-1573) cells stably transfected with cDNA corresponding to human IR-A (holoIR-A) plus a C-terminal C9 tag ([…]) inserted within a pcDNA3.1 plasmid (Invitrogen), with positive clones selected with 800 μg mL^−1 neomycin and confirmed by Western Blot. Frozen cell pellets were thawed in ice-cold homogenization/resuspension buffer (50 mM Tris-HCl, pH 7.5) containing one cOmplete® protease inhibitor tablet with EDTA (Roche Diagnostics) per 50 mL buffer. Cells were homogenized with an overhead motor-driven Teflon-glass homogenizer using 15–20 strokes, followed by centrifugation at 1100 × g for 10 min at 4 °C. The supernatant was saved on ice, pellets were homogenized as before, and centrifuged at 1100 × g for 10 min at 4 °C. Both supernatants were combined and subsequently centrifuged at 35,000 × g for 60 min at 4 °C. The pellet was resuspended in buffer (4 to 5 mL g^−1 of starting cell paste) containing protease inhibitors and quick frozen in liquid nitrogen prior to storage at −80 °C. Protein concentration was determined using a BCA kit (Thermo Scientific) with bovine serum albumin (BSA) as standard.
The assays were performed with a scintillation proximity assay (SPA) method using polyvinyltoluene (PVT) wheat germ agglutinin-coupled SPA beads (Perkin Elmer). Assay buffer containing 50 mM Tris-HCl (pH 7.5), 150 mM NaCl, 0.1% w/v fatty-acid free BSA was used for all compound testing and reagent preparation. Ten-point concentration response curves with three-fold serial dilutions of test samples or controls were prepared in the assay buffer. […] Plates were sealed and shaken for 1 min on a plate shaker. Following a 10-h incubation and bead settling period at room temperature, radioactivity was determined using a MicroBeta Trilux scintillation counter (Perkin Elmer) and expressed as counts per minute (CPM). […] Samples were tested in three independent assay runs on three different days.
All test sample concentration responses were normalized to the control response and calculated as a percent of the maximal response after correcting for nonspecific binding as shown below: %Specific Inhibition=100%−[(CPM−MIN)/(MAX−MIN)×100%]
Percent specific binding (y-axis) was plotted vs log concentration of compound (x-axis) using Prism Version 9.3.1 (GraphPad Software). Individual measurements are provided as Source Data.

[2] = mean of 3 runs, read-out: hIRA Binding Ki Mean
[3] = run 1, read-out: hIRA Binding Ki Run 1
[4] = run 2, read-out: hIRA Binding Ki Run 2
[5] = run 3, read-out: hIRA Binding Ki Run 3

T1 sequence (P06213 28-1370 isoform P06213-2 limits assumed): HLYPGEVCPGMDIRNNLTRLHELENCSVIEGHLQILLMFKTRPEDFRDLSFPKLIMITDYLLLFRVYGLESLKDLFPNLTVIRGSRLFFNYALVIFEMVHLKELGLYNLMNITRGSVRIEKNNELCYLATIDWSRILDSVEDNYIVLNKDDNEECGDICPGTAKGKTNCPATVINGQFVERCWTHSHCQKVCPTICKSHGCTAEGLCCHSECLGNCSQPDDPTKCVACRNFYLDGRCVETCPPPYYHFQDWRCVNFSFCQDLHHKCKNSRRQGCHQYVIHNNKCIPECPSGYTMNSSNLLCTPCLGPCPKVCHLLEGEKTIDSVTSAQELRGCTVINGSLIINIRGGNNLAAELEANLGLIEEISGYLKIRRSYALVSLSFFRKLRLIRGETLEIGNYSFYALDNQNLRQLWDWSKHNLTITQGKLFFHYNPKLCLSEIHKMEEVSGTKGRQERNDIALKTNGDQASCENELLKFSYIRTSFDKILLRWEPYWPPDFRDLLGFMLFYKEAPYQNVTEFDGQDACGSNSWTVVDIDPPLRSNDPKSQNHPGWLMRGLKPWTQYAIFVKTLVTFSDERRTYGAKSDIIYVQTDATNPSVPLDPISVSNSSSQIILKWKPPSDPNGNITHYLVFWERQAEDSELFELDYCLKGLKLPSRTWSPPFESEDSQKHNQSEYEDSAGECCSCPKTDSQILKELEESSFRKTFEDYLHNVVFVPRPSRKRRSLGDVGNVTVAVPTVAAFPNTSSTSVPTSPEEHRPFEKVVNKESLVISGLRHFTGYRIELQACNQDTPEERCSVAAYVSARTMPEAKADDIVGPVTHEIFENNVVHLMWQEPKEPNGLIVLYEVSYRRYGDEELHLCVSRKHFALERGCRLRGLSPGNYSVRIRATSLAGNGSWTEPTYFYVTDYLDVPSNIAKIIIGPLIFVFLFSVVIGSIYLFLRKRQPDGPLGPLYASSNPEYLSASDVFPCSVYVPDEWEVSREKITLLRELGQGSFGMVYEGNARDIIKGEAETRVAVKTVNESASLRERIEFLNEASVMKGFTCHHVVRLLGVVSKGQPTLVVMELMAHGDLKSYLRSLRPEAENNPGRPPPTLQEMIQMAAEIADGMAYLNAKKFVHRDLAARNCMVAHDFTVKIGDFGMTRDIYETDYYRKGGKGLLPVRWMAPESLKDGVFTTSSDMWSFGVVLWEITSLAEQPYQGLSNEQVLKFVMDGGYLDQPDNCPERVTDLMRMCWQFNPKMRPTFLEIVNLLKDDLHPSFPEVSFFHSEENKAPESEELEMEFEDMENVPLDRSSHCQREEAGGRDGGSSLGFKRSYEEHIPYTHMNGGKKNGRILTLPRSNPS
T1 sequence (P06213 763-1382 partner limits assumed): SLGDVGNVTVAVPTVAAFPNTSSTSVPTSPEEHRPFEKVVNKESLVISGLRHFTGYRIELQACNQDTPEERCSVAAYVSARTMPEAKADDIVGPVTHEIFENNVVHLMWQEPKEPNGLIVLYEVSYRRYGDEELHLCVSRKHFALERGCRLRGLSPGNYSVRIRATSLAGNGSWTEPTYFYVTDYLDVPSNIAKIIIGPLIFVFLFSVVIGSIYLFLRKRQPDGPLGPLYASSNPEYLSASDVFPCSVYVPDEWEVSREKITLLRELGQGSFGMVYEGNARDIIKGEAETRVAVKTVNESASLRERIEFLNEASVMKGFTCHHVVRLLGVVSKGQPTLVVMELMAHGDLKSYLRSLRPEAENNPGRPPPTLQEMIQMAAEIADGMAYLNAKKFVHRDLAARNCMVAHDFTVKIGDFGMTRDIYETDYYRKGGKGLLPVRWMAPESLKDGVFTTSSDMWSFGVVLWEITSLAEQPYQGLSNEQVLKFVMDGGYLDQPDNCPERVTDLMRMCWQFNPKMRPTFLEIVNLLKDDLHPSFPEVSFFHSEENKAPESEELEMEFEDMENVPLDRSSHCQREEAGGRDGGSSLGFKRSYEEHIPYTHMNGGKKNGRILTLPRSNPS
T2 sequence (P06213 28-1370 isoform P06213-2 limits assumed): as the sequence (P06213 28-1370 isoform P06213-2 limits assumed) above
T2 sequence (P06213 763-1382 partner limits assumed): as the sequence (P06213 763-1382 partner limits assumed) above

hIRA Phosph IC50 Run 1 [1] [nM] | hIRA Phosph IC50 Run 2 [1] [nM] | hIRA Phosph IC50 Run 3 [1] [nM] | IC50 [1] [nM] | Ki (human IR-A (holoIR-A); [2]) [nM] | Ki (human IR-A (holoIR-A); [3]) [nM] | Ki (human IR-A (holoIR-A); [4]) [nM] | Ki (human IR-A (holoIR-A); [5]) [nM] | reduction in ki for hIR-A on substitution (human IR-A (holoIR-A)) | Structure (SMILES)
>10000 | >10000 | >10000 | > 10000 | > 4240 | > 1210 | > 4160 | > 4240 |  | CC[C@H](C)[C@H](NC(=O)[C@H](CCC(N)=O)NC(=O)[C@H](C)NC(=O)[C@H](Cc1c[nH]c2ccccc12)NC(=O)[C@H](CCC(=O)O)NC(=O)[C@H](CCC(=O)O)NC(=O)[C@H](CCCNC(=N)N)NC(=O)[C@H](CC(C)C)NC(=O)[C@H](CO)NC(C)=O)C(=O)N[C@@H](CCC(=O)O)C(=O)N[C@H]1CSSC[C@@H](C(=O)N2CCC[C@H]2C(=O)N2CCC[C@H]2C(=O)N[C@@H](CO)C(=O)N[C@@H](CCC(=O)O)C(=O)N[C@@H](CO)C(N)=O)NC(=O)[C@H](CCCNC(=N)N)NC(=O)CNC(=O)[C@H](Cc2ccc(O)cc2)NC(=O)[C@H](C(C)C)NC(=O)[C@H](CCC(=O)O)NC1=O [Peptide E3R] (Ac-SLREEWAQIECEVYGRCPPSES-NH2; disulfide 11-17)
367 | 259 | 348 | 325 | 38 | 42.4 | 35.7 | 35.9 |  | CC[C@H](C)[C@H](NC(=O)[C@H](CCC(N)=O)NC(=O)[C@H](C)NC(=O)[C@H](Cc1c[nH]c2ccccc12)NC(=O)[C@H](CCC(=O)O)NC(=O)[C@H](CCCNC(=N)N)NC(=O)[C@H](CCC(=O)O)NC(=O)[C@H](CC(C)C)NC(=O)[C@H](CO)NC(C)=O)C(=O)N[C@@H](CCC(=O)O)C(=O)N[C@H]1CSSC[C@@H](C(=O)N2CCC[C@H]2C(=O)N2CCC[C@H]2C(=O)N[C@@H](CO)C(=O)N[C@@H](CCC(=O)O)C(=O)N[C@@H](CO)C(N)=O)NC(=O)[C@H](CCCNC(=N)N)NC(=O)CNC(=O)[C@H](Cc2ccc(O)cc2)NC(=O)[C@H](C(C)C)NC(=O)[C@H](CCC(=O)O)NC1=O [Peptide E4R] (Ac-SLEREWAQIECEVYGRCPPSES-NH2; disulfide 11-17)

The remaining lines, values behind:

Structure (SMILES) | hIRA Phosph IC50 Run 1 [1] [nM] | hIRA Phosph IC50 Run 2 [1] [nM] | hIRA Phosph IC50 Run 3 [1] [nM] | IC50 [1] [nM] | Ki (human IR-A (holoIR-A); [2]) [nM] | Ki (human IR-A (holoIR-A); [3]) [nM] | Ki (human IR-A (holoIR-A); [4]) [nM] | Ki (human IR-A (holoIR-A); [5]) [nM] | reduction in ki for hIR-A on substitution (human IR-A (holoIR-A))
CC[C@H](C)[C@H](NC(=O)[C@H](CCC(N)=O)NC(=O)[C@H](C)NC(=O)[C@H](Cc1c[nH]c2ccccc12)NC(=O)[C@H](CCC(=O)O)NC(=O)[C@H](CCC(=O)O)NC(=O)[C@H](CCC(=O)O)NC(=O)[C@H](CC(C)C)NC(=O)[C@H](CO)NC(C)=O)C(=O)N[C@@H](CCC(=O)O)C(=O)N[C@H]1CSSC[C@@H](C(=O)N2CCC[C@H]2C(=O)N2CCC[C@H]2C(=O)N[C@@H](CO)C(=O)N[C@@H](C)C(=O)N[C@@H](CO)C(N)=O)NC(=O)[C@H](CCCNC(=N)N)NC(=O)CNC(=O)[C@H](Cc2ccc(O)cc2)NC(=O)[C@H](C(C)C)NC(=O)[C@H](CCC(=O)O)NC1=O [Peptide E21A] (Ac-SLEEEWAQIECEVYGRCPPSAS-NH2; disulfide 11-17) | 147 | 122 | 132 | 134 | 17.5 | 19.79 | 18.2 | 14.7 | lower than 5 fold
CC[C@H](C)[C@H](NC(=O)[C@H](CCC(N)=O)NC(=O)[C@H](C)NC(=O)[C@H](Cc1c[nH]c2ccccc12)NC(=O)[C@H](CCC(=O)O)NC(=O)[C@H](CCC(=O)O)NC(=O)[C@H](CCC(=O)O)NC(=O)[C@H](CC(C)C)NC(=O)[C@H](CO)NC(C)=O)C(=O)N[C@@H](C)C(=O)N[C@H]1CSSC[C@@H](C(=O)N2CCC[C@H]2C(=O)N2CCC[C@H]2C(=O)N[C@@H](CO)C(=O)N[C@@H](CCC(=O)O)C(=O)N[C@@H](CO)C(N)=O)NC(=O)[C@H](CCCNC(=N)N)NC(=O)CNC(=O)[C@H](Cc2ccc(O)cc2)NC(=O)[C@H](C(C)C)NC(=O)[C@H](CCC(=O)O)NC1=O [Peptide E10A] (Ac-SLEEEWAQIACEVYGRCPPSES-NH2; disulfide 11-17) | 272 | 217 | 236 | 242 | 19 | 19.4 | 16.4 | 21.2 | lower than 5 fold
CC[C@H](C)[C@H](NC(=O)[C@H](CCC(N)=O)NC(=O)[C@H](C)NC(=O)[C@H](Cc1c[nH]c2ccccc12)NC(=O)[C@H](C)NC(=O)[C@H](CCC(=O)O)NC(=O)[C@H](CCC(=O)O)NC(=O)[C@H](CC(C)C)NC(=O)[C@H](CO)NC(C)=O)C(=O)N[C@@H](CCC(=O)O)C(=O)N[C@H]1CSSC[C@@H](C(=O)N2CCC[C@H]2C(=O)N2CCC[C@H]2C(=O)N[C@@H](CO)C(=O)N[C@@H](CCC(=O)O)C(=O)N[C@@H](CO)C(N)=O)NC(=O)[C@H](CCCNC(=N)N)NC(=O)CNC(=O)[C@H](Cc2ccc(O)cc2)NC(=O)[C@H](C(C)C)NC(=O)[C@H](CCC(=O)O)NC1=O [Peptide E5A] (Ac-SLEEAWAQIECEVYGRCPPSES-NH2; disulfide 11-17) | 316 | 264 | 378 | 319 | 98 | 107 | 98 | 89.4 | 
CC[C@H](C)[C@H](NC(=O)[C@H](C)NC(=O)[C@H](C)NC(=O)[C@H](Cc1c[nH]c2ccccc12)NC(=O)[C@H](CCC(=O)O)NC(=O)[C@H](CCC(=O)O)NC(=O)[C@H](CCC(=O)O)NC(=O)[C@H](CC(C)C)NC(=O)[C@H](CO)NC(C)=O)C(=O)N[C@@H](CCC(=O)O)C(=O)N[C@H]1CSSC[C@@H](C(=O)N2CCC[C@H]2C(=O)N2CCC[C@H]2C(=O)N[C@@H](CO)C(=O)N[C@@H](CCC(=O)O)C(=O)N[C@@H](CO)C(N)=O)NC(=O)[C@H](CCCNC(=N)N)NC(=O)CNC(=O)[C@H](Cc2ccc(O)cc2)NC(=O)[C@H](C(C)C)NC(=O)[C@H](CCC(=O)O)NC1=O [Peptide Q8A] (Ac-SLEEEWAAIECEVYGRCPPSES-NH2; disulfide 11-17) | 84 | 92 | 99 | 91.9 | 6.05 | 5.17 | 6.67 | 6.31 | lower than 5 fold
